{
  "source": "patent US20240261305A1",
  "about": "(priority 2021, published 2024)",
  "key": {"[1]": {"experiment": "Stability of CBD at room temperature and in the dark", "type": "physicochemical", "conditions": "room temperature; for degradation of CBD: 3 months"}, "[2]": {"conditions": "after oral administration; cited from earlier work"}, "in vivo [3]": {"experiment": "in vivo", "conditions": "mouse, po, mice"}, "in vivo [4]": {"experiment": "in vivo", "conditions": "rat, po, rats"}, "[5]": {"conditions": "kinetic detection (oral bioavailability), sesame oil alone"}, "[6]": {"conditions": "oral bioavailability, administered as an unformulated oil extract"}, "[7]": {"conditions": "oral bioavailability, formulated (mixture of sesame oil, amaranth oil and squalene)"}},
  "data": [
    {"smiles": "C=C(C)[C@@H]1CCC(C)=C[C@H]1c1c(O)cc(CCCCC)cc1O", "note": "[CBD, cannabidiol]", "values": [
      {"measurement": "degradation of CBD", "setting": "[1]; CBD from ethanolic cannabis extract formulated in a mixture of sesame oil, amaranth and squalene (at least 0.1%)", "value": 3, "unit": "%"},
      {"measurement": "degradation of CBD", "setting": "[1]; CBD in products obtained by ethanolic extraction from cannabis", "value": 8, "unit": "%"},
      {"measurement": "degradation of CBD", "setting": "[1]; CBD in pure form (both amorphous and crystalline)", "value": 11, "unit": "%"},
      {"measurement": "degradation of CBD", "setting": "[1]; pure CBD formulated in a mixture of sesame oil, amaranth and squalene (at least 0.1%)", "value": 4, "unit": "%"},
      {"measurement": "instability compared with unformulated CBD", "setting": "[1]; CBD solubilised in sesame oil or amaranth oil or in squalene alone", "value": "did not show a statistically significant difference"},
      {"measurement": "time to reach peak plasma concentration", "setting": "[2]", "value": "1 to 4", "unit": "h"},
      {"measurement": "bioavailability", "setting": "in vivo [3]; [5]", "value": "25 to 30", "unit": "%"},
      {"measurement": "bioavailability", "setting": "in vivo [3]; [6]", "value": "5 to 6", "unit": "%"},
      {"measurement": "bioavailability", "setting": "in vivo [3]; [7]", "value": "~50", "unit": "%"},
      {"measurement": "bioavailability", "setting": "in vivo [4]; [5]", "value": "25 to 30", "unit": "%"},
      {"measurement": "bioavailability", "setting": "in vivo [4]; [6]", "value": "5 to 6", "unit": "%"},
      {"measurement": "bioavailability", "setting": "in vivo [4]; [7]", "value": "~60", "unit": "%"}
    ]}
  ]
}
